The source of these data is patent publication US20150157633A1, “WNT PROTEIN SIGNALLING INHIBITORS” (The Board of Regents of the University of Texas System, priority 2012, published 2015).

The test system of test [1] is Wnt/β-catenin pathway. Put plainly: Wnt-responsive EGFP reporter in transgenic zebrafish embryos (7XTCF-siam:EGFP). The test is classed as in vivo. As to conditions: for Wnt signaling activity (EGFP reporter): embryos treated from 4 hpf for 20 hours, compound in medium.
For a further test, the system named is Axin2. Put plainly: Axin2 expression in DLD-1 cells. The note with it: exposure for 2 h. Type of test: cell-based. An excerpt:
Aberrant transcriptional induction of Wnt/β-catenin target genes is typically observed in CRC cells that harbor loss-of-function mutations in the APC tumor suppressor.

The subject of a further test is fin regrowth. Nature of the test: Resumption of caudal fin regrowth after removal of compound. The test is classed as in vivo, zebrafish. The note with it: resected caudal fins, water containing IWR-1 for 7 d, then removal. The source says: Achieving transient repression of pathological Wnt response without incurring permanent damage to normal stem cell function is a key anticancer therapeutic goal.

In a further test the test system is Notch. The note with it: previously demonstrated (Chen et al., 2009); cited from earlier work.
A further test concerns Hh. As to conditions: previously demonstrated (Chen et al., 2009); cited from earlier work.
The target of a further test is HHAT (Homo sapiens, UniProt Q5VTY9). Nature of the test: Click chemistry labeling of Hh protein with alkynyl-PA (Hh fatty acylation). The test is classed as cell-based.
Another test has as its system Jnk. Put plainly: Wnt7B-induced Jnk phosphorylation in L fibroblasts. As to conditions: L fibroblasts transfected with Wnt7B DNA. The test is classed as cell-based, Mouse.
A further test has as its system Wnt5A. Put plainly: Wnt5A-dependent antagonism of Wnt/β-catenin signaling, STF reporter in HEK293 cells. Type of test: cell-based. As to conditions: Wnt3A-containing conditioned medium. The procedure:
(§1) Luciferase reporter assays. Wnt-Gaussia luciferase secretion and SuperTopFlash assays were conducted as described using a Dual Luciferase kit (Promega) (Chen et al., 2009).

For another test, the system named is Dv12. Nature of the test: Dv12 phosphorylation in HeLa cells (Western blot). The test is classed as cell-based. The note with it: cell-autonomous Wnt signaling.
The next test deals with T1, Porcn (Homo sapiens, UniProt Q9H237).
T1 construct: endogenous in cells; host or cells: HEK293
T1 sequence (Q9H237 1-461): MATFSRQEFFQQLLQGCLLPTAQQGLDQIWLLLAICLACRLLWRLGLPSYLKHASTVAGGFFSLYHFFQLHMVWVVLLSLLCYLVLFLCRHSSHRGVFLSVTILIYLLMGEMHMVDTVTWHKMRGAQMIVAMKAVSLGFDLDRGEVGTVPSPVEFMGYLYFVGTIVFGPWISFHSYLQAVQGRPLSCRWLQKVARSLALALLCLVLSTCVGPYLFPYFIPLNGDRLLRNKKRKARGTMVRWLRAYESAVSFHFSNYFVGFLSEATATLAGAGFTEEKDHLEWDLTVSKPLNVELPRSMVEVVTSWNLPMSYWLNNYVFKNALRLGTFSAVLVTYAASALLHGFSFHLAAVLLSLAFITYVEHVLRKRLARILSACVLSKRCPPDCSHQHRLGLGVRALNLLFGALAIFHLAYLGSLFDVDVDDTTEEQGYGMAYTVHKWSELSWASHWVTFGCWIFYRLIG
Put plainly: Click chemistry labeling of Wnt3A-Fc with alkynyl-PA (Wnt fatty acylation). The test is classed as cell-based. The procedure: Click chemistry. HEK293 cells transiently transfected with the Wnt3A-Fc DNA expression construct were treated with C16 ω-alkynyl fatty acid (see Reagents; 100 μM final concentration) for six hours as previously described (9) in the presence or DMSO or various IWP compounds. C16 ω-alkynyl fatty acid-labeled Wnt3A-Fc protein isolated from cell lysate using Protein A sepharose was then subjected to a copper catalyzed alkyne-azide cycloaddition with biotin-azide with protein immobilized on the sepharose. The biotinylated Wnt protein run on SDS PAGE was detected using HRP conjugated streptavidin.

Another test has as its system Wnt1-GFP. Nature of the test: Organotypic embryonic kidney culture from Wnt1-GFP mice. The test is classed as cell-based. The procedure: Organotypic kidney culture. E11.5 urogenital systems were removed and bisected in sterile phosphate buffered saline (PBS) and then the individual halves were cultured in […] of media at the air-media interface on 24-well tissue culture treated, 6.5 mm diameter, […] pore size Transwell filters (Corning, catalog no. 3422). The media (DMEM with 10% fetal bovine serum (FBS) and Pen/Strep) was supplemented with either DMSO or IWP2 and replaced with fresh media every 12, 24, or 48 hours. All treatments were repeated at least three times with a minimum of six individual kidneys from six distinct embryos each time.

In test [2] the test system is general protein secretion. As to conditions: previously demonstrated (Chen et al., 2009); cited from earlier work.
A further test concerns Wnt-GL fusion proteins. Put plainly: Wnt-Gaussia luciferase secretion assay in HEK293 cells. Type of test: cell-based. The note with it: HEK293 cells expressing one of several Wnt-GL proteins. The procedure: as §1
In another test the test system is tailfin regeneration. Nature of the test: Caudal fin regeneration assay in zebrafish larvae. Type of test: in vivo. The note with it: larvae resected at 3 days post fertilization, IWP12 50 μM, 4 days.
The next test has as its system Engrailed (eng1a). Put plainly: eng1a expression at the midbrain/hindbrain boundary, in situ hybridization. The test is classed as in vivo, zebrafish. As to conditions: embryos (4 hpf) treated for 20 hours.
For test [3], the system named is Wnt-planar cell polarity (Wnt/PCP) signaling. Put plainly: Convergence and extension gastrulation movements, whole mount in situ hybridization. Type of test: in vivo, zebrafish. The note with it: embryos treated starting 4 hpf.
Test [4] deals with Wnt/β-catenin pathway. Put plainly: Wnt reporter GFP in cultured zebrafish primary embryonic fibroblasts. The test is classed as cell-based. As to conditions: fibroblasts from 6 hpf embryos, GFP visualized 20 hrs later. The source says: Zebrafish embryonic cell cultures were initiated from embryos at the shield stage (6 hpf). The embryos were dissociated in trypsin/EDTA solution with gentle homogenization and pipetting. After centrifugation, the collected cells were resuspended in F12/L15/DMEM medium and placed into a 24-well tissue culture plate.

Molecules are shown by their SMILES. Entries after “also recorded” stand apart in the source; their conditions may differ.

Chain of HHAT (Q5VTY9 whole entry, species assumed): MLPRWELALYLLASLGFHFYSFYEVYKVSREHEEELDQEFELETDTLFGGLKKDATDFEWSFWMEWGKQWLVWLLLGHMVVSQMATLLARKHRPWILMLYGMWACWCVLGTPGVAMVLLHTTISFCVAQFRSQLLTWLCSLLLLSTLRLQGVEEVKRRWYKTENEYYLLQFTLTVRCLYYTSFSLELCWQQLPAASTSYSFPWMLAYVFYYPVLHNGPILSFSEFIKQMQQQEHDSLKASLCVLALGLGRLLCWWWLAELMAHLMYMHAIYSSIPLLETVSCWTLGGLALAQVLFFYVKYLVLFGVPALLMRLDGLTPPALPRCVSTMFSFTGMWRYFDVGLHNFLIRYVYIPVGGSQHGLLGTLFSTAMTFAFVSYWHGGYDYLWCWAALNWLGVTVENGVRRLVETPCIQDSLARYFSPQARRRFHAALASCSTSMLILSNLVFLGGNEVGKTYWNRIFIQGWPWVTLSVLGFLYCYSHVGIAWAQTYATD

In the case of `O=C(Nc1cccc2cccnc12)c1ccc(N2C(=O)[C@@H]3[C@H](C2=O)[C@@H]2C=C[C@H]3C2)cc1` [IWR1], the “Wnt signaling activity (EGFP reporter)” value in the test on Wnt/β-catenin pathway [1] is “Dose-dependent effects”. In addition, the “expression of Axin2” value in the test with Axin2 is “a decrease in the expression of Axin2”. The “fin tissue regeneration after chemical removal” value in the test with fin regrowth is listed as “able to regenerate tissue to nearly normal levels after chemical removal”.
`Cc1ccc2nc(NC(=O)CSc3nc4c(c(=O)n3-c3ccccc3)SCC4)sc2c1` [IWP2]: in the test with Notch, the “cellular responses mediated by Notch” value is recorded as “does not block”. Moreover, in the test on Hh, the “cellular responses mediated by Hh” value is on record as “does not block”. Besides, the “fatty acylation of Hh mediated by Hhat” value at HHAT is recorded as “does not block fatty acylation”. In addition, the “activation (phosphorylation) of Jnk” value in the test on Jnk is “disrupted”. The “production of non-canonical Wnt (Wnt5A)” value with Wnt5A is “inhibits the production of a non-canonical Wnt (Wnt5A)”. In addition, the Dv12 phosphorylation entry in the test on Dv12 is recorded as “inhibits Dv12 phosphorylation”. In addition, the Wnt protein acylation result at Porcn is “disrupts Wnt protein acylation”. For the same molecule, in the test with Wnt1-GFP (E11.5 embryonic kidney culture, Wnt/β-catenin-dependent process), the tubule induction result is “disrupt tubule induction”. Further, in the test on Wnt1-GFP (E11.5 embryonic kidney, treated in vitro for 24 hours), the “accumulation of Wnt1 on the cell surface” value is “block the accumulation of Wnt1 on the cell surface”. Also, the general protein secretion entry in test [2] is given as “does not block”. The “accumulation of Wnt proteins in the cell culture medium” value with Wnt-GL fusion proteins is given as “abrogated the accumulation of Wnt proteins in the cell culture medium”.
Take `Cc1ccc2nc(NC(=O)CSc3nc4c(c(=O)n3C)SC(C)C4)sc2c1` (stereo not drawn) [IWP12]: in the test on Wnt/β-catenin pathway [1] (EGFP reporter fluorescence, posterior region), the “excess of IWP12 equivalent in activity to IWR1” value is recorded as “approximately 10 fold”. For the same molecule, the “Wnt signaling activity (EGFP reporter)” value with Wnt/β-catenin pathway [1] is “loss of Wnt signaling activity; also recorded: Dose-dependent effects”. For the same molecule, the posterior body morphogenesis entry with Wnt/β-catenin pathway [1] (zebrafish embryos) is “severe effect on posterior body morphogenesis”. For the same molecule, the “tailfin regeneration following resection” value in the test on tailfin regeneration is listed as “block juvenile fish tailfin regeneration”. Besides, the “expression of MHB marker Engrailed (eng1a)” value in the test with Engrailed (eng1a) is “decreased expression of the MHB marker Engrailed (eng1a)”. The “convergence and extension gastrulation movements” value in [3] is “block convergence and extension gastrulation movements”. Further, in the test with Wnt/β-catenin pathway [4], the “Wnt/β-catenin pathway response (GFP)” value is “loss of Wnt/β-catenin pathway responses”.
